Source: patent US20040166163A1, “Antibacterial composition for medical tool” (priority 2001, published 2004)

Key:
Type in all cases: cell-based
Trichophyton = assay: Antimicrobial test of PVC test piece, fungi (growth on agar-covered piece); set-up: key: A: No growth on the test piece.; B: The grown fungi covers less than 30% of the test piece's surface area.; C: The grown fungi covers 30% or more and less than 70% of the test piece's surface area.; D: The grown fungi covers 70% or more of the test piece's surface area; conditions: soft PVC sheet; ZnPT 0.01 + test compound 0.3 parts per 100 PVC; 35° C., 1 week
Protocol: (§1) A mixture having the formulation described below was roll kneaded at 170° C. to prepare a sheet, which was pressed at 180° C. for 5 minutes to obtain a 0.5 mm thick soft PVC sheet. A 10 mm×10 mm test piece was cut out of the soft PVC sheet and evaluated for antimicrobial properties against bacteria (Nos. 1 to 5 in Table 1) and fungi (Nos. 6 to 8 in Table 1) in accordance with the respective methods described below.
(§2) The test piece was placed at the center of a culture dish, and a common agar medium was poured to thinly cover the test piece. The culture solution was applied to the agar medium and cultivated at 35° C. for 1 week. The growth of the fungus was observed and rated based on the following criteria.
(§3) A mixture having the formulation shown below was roll kneaded at 170° C. to prepare a sheet, which was pressed at 180° C. for 5 minutes to obtain a 0.5 mm thick semi-rigid PVC sheet. A 10 mm×10 mm test piece was cut out of the semi-rigid PVC sheet. Zinc pyrithione and a test compound were previously compounded to prepare an antimicrobial composition in a predetermined ratio to give the formulation. The test piece was tested in the same manner as in Example 1.

Kurokawa mold = assay: as above; set-up: key: A: No growth on the test piece.; B: The grown fungi covers less than 30% of the test piece's surface area.; C: The grown fungi covers 30% or more and less than 70% of the test piece's surface area.; D: The grown fungi covers 70% or more of the test piece's surface area; conditions: soft PVC sheet; ZnPT 0.01 + test compound 0.3 parts per 100 PVC; 35° C., 1 week
Protocol: as §1, §2, §3

Brewer's yeast = assay: as above; set-up: key: A: No growth on the test piece.; B: The grown fungi covers less than 30% of the test piece's surface area.; C: The grown fungi covers 30% or more and less than 70% of the test piece's surface area.; D: The grown fungi covers 70% or more of the test piece's surface area; conditions: soft PVC sheet; ZnPT 0.01 + test compound 0.3 parts per 100 PVC; 35° C., 1 week
Protocol: as §1, §2, §3

Staphylococcus aureaus = assay: Antimicrobial test of PVC test piece, bacteria (surviving cells); conditions: soft PVC sheet; ZnPT 0.01 + test compound 0.3 parts per 100 PVC; 35° C., 2 days
Protocol: as §1
(§4) The culture solution was applied to the test piece, and the test piece was tightly covered with polyethylene cling film. After cultivation at 35° C. for 2 days, the number of surviving cells was counted and rated based on the following criteria.
as §3

Bacillus subtilis = assay: as above; conditions: soft PVC sheet; ZnPT 0.01 + test compound 0.3 parts per 100 PVC; 35° C., 2 days
Protocol: as §1, §4, §3

Lactobacillus = assay: as above; conditions: soft PVC sheet; ZnPT 0.01 + test compound 0.3 parts per 100 PVC; 35° C., 2 days
Protocol: as §1, §4, §3

MRSA = assay: as above; conditions: soft PVC sheet; ZnPT 0.01 + test compound 0.3 parts per 100 PVC; 35° C., 2 days
Protocol: as §1, §4, §3

Escherichia coli = assay: as above; conditions: soft PVC sheet; ZnPT 0.01 + test compound 0.3 parts per 100 PVC; 35° C., 2 days
Protocol: as §1, §4, §3

| Structure (SMILES) | Fungal growth rating, microorganism 6: Trichophyton (Trichophyton) | Fungal growth rating, microorganism 8: Kurokawa mold (Kurokawa mold) | Fungal growth rating, microorganism 7: Brewer's yeast (Brewer's yeast) | Survival rate rating, microorganism 1: Staphylococcus aureaus (Staphylococcus aureaus) | Survival rate rating, microorganism 3: Bacillus subtilis (Bacillus subtilis) | Survival rate rating, microorganism 4: Lactobacillus (Lactobacillus) | Survival rate rating, microorganism 2: MRSA (MRSA) | Survival rate rating, microorganism 5: Escherichia coli (Escherichia coli) |
| --- | --- | --- | --- | --- | --- | --- | --- | --- |
| Cc1cc2c(c(C(C)(C)C)c1)OP(=O)([O-])Oc1c(cc(C)cc1C(C)(C)C)C2.[Na+] [No. 6] | A | A | A | A (The survival rate is less than 0.1%.) | A (The survival rate is less than 0.1%.) | A (The survival rate is less than 0.1%.) | A (The survival rate is less than 0.1%.) | A (The survival rate is less than 0.1%.) |
| CC1c2cc(C(C)(C)C)cc(C(C)(C)C)c2OP(=O)([O-])Oc2c1cc(C(C)(C)C)cc2C(C)(C)C.[Na+] (stereo not drawn) [No. 7] | A | A | A | A (The survival rate is less than 0.1%.) | A (The survival rate is less than 0.1%.) | A (The survival rate is less than 0.1%.) | A (The survival rate is less than 0.1%.) | A (The survival rate is less than 0.1%.) |
| Cc1c(C(C)(C)C)cc(C(C)(C)C)c2c1C(C)c1c(C)c(C(C)(C)C)cc(C(C)(C)C)c1OP(=O)([O-])O2.[Na+] (stereo not drawn) [No. 8] | A | A | A | A (The survival rate is less than 0.1%.) | A (The survival rate is less than 0.1%.) | A (The survival rate is less than 0.1%.) | A (The survival rate is less than 0.1%.) | A (The survival rate is less than 0.1%.) |
